Data: patent publication US7306804B2 (priority 1998, dated 2007)
Entries after “also recorded” stand apart in the source; their conditions may differ. Like-named read-outs stand apart in the source and are kept apart here.

Legend:
[1] = test system: HIV envelope protein gp160; settings: cited from earlier work; for T-cell proliferative response to immunizing peptide and HIV Env protein gp160 / antibodies recognizing recombinant gp160: immunized mice; for T-cell proliferation responses: two F1 hybrid mouse strains (B6C3 F1 and A.SW×Balb/c F1)
[2] = test system: PBMCs from normal and HIV-positive individuals; assay type: cell-based, human; settings: for number of HIV+ individuals with positive proliferative responses: 17 HIV+ individuals tested
PBMCs = settings: cited from earlier work
[3] = test system: anti-peptide antibodies in serum; assay type: binding, chimpanzee; parameters: key: +, Positive (Titer > 1:100); −, Negative (Titer < 1:100)
[4] = test system: PBMCs from control and HIV-1 infected chimpanzees; assay type: cell-based, chimpanzee; settings: for number of HIV-infected chimpanzees with positive proliferative responses (SI>2.0): nine HIV-infected chimpanzees tested
[5] = test system: anti-peptide antibodies in serum; assay type: binding, human; parameters: key to Anti-peptide antibody response: +, Positive (titer above control); −, Negative (titer below control)
[6] = test system: peptide-pulsed autologous EBV-transformed B cells (B-LCL); assay type: cell-based, human

For VYYGVPVWKEA [Peptide 104], the “T-cell proliferative response to immunizing peptide and HIV Env protein gp160” value [1] is given as “induced a T-cell response against both the immunizing peptide and the HIV Env protein; also recorded: induced proliferative responses to both the immunizing peptide”, the “antibodies recognizing recombinant gp160” value [1] is given as “did not produce antibodies that could recognize recombinant gp160” and the T-cell proliferation responses [1] is given as “relatively good T-cell proliferation responses”. For the same sequence, the “number of HIV+ individuals with positive proliferative responses” value [2] was “eight of the 17”, the T-cell proliferative response ([2]; HIV-positive patient MSf) was “− (−, Negative (SI < 2.0))” and the T-cell proliferative response ([2]; HIV-positive patient MSm) was “− (−, Negative (SI < 2.0))”. The T-cell proliferative response ([2]; HIV-positive patient eight) was “− (−, Negative (SI < 2.0))”, the T-cell proliferative response ([2]; HIV-positive patient eleven) was “+ (+, Positive (Stimulation Index [SI] > 2.0))” and the T-cell proliferative response ([2]; HIV-positive patient fifteen) was “+ (+, Positive (Stimulation Index [SI] > 2.0))”. The T-cell proliferative response ([2]; HIV-positive patient five) was “− (−, Negative (SI < 2.0))”, the T-cell proliferative response ([2]; HIV-positive patient four) was “− (−, Negative (SI < 2.0))” and the T-cell proliferative response ([2]; HIV-positive patient fourteen) was “− (−, Negative (SI < 2.0))”. For the same sequence, the T-cell proliferative response ([2]; HIV-positive patient nine) was “+ (+, Positive (Stimulation Index [SI] > 2.0))”, the T-cell proliferative response ([2]; HIV-positive patient one) was “− (−, Negative (SI < 2.0))” and the T-cell proliferative response ([2]; HIV-positive patient seven) was “− (−, Negative (SI < 2.0))”. The T-cell proliferative response ([2]; HIV-positive patient six) was “+ (+, Positive (Stimulation Index [SI] > 2.0))”, the T-cell proliferative response ([2]; HIV-positive patient ten) was “− (−, Negative (SI < 2.0))” and the T-cell proliferative response ([2]; HIV-positive patient thirteen) was “+ (+, Positive (Stimulation Index [SI] > 2.0))”. For the same sequence, the T-cell proliferative response ([2]; HIV-positive patient three) was “+ (+, Positive (Stimulation Index [SI] > 2.0))”, the T-cell proliferative response ([2]; HIV-positive patient twelve) was “+ (+, Positive (Stimulation Index [SI] > 2.0))” and the T-cell proliferative response ([2]; HIV-positive patient two) was “+ (+, Positive (Stimulation Index [SI] > 2.0))”. For the same sequence, the T-cell proliferative response ([2]; Normal-1 (HIV-seronegative)) was “− (−, Negative (SI < 2.0))”, the T-cell proliferative response ([2]; Normal-2 (HIV-seronegative)) was “− (−, Negative (SI < 2.0))” and the SI values ([2]; in six of the eight responding HIV+ individuals) was “above 4.1”. The “proliferative response of PBMCs” value (PBMCs; three monkeys immunized with peptide cocktail) was “good response”, the Anti-peptide antibody response [3] was “−” and the Anti-peptide antibody response ([3]; chimpanzee 40, control normal) was “−”. The Anti-peptide antibody response ([3]; chimpanzee 73, control normal) was “−”, the T-cell proliferative response ([4]; chimpanzee 40, control normal) was “− (−, Negative (SI < 2.0))” and the T-cell proliferative response ([4]; chimpanzee 62, HIV-infected) was “+ (+, Positive (Stimulation Index [SI] > 2.0))”. For the same sequence, the T-cell proliferative response ([4]; chimpanzee 69, HIV-infected) was “+ (+, Positive (Stimulation Index [SI] > 2.0))”, the T-cell proliferative response ([4]; chimpanzee 73, control normal) was “− (−, Negative (SI < 2.0))” and the T-cell proliferative response ([4]; chimpanzee 80, HIV-infected) was “+ (+, Positive (Stimulation Index [SI] > 2.0))”. For the same sequence, the T-cell proliferative response ([4]; chimpanzee 99, HIV-infected) was “+ (+, Positive (Stimulation Index [SI] > 2.0))”, the T-cell proliferative response ([4]; chimpanzee 100, HIV-infected) was “− (−, Negative (SI < 2.0))” and the T-cell proliferative response ([4]; chimpanzee 139, HIV-infected) was “+ (+, Positive (Stimulation Index [SI] > 2.0))”. For the same sequence, the T-cell proliferative response ([4]; chimpanzee 175, HIV-infected) was “+ (+, Positive (Stimulation Index [SI] > 2.0))”, the T-cell proliferative response ([4]; chimpanzee 247, HIV-infected) was “− (−, Negative (SI < 2.0))” and the T-cell proliferative response ([4]; chimpanzee 310, HIV-infected) was “+ (+, Positive (Stimulation Index [SI] > 2.0))”. The SI values ([4]; in three HIV-infected chimpanzees) was “above 5.1”, the “number of HIV-infected chimpanzees with positive proliferative responses (SI>2.0)” value [4] was “seven of the nine” and the “number of HIV+ individuals with positive antibody titers (<1:1280)” value [5] was “three”. For the same sequence, the Anti-peptide antibody response ([5]; HIV-positive patient MSf) was “−”, the Anti-peptide antibody response ([5]; HIV-positive patient MSm) was “−” and the Anti-peptide antibody response ([5]; HIV-positive patient eight) was “−”. The Anti-peptide antibody response ([5]; HIV-positive patient eleven) was “−”, the Anti-peptide antibody response ([5]; HIV-positive patient fifteen) was “−” and the Anti-peptide antibody response ([5]; HIV-positive patient five) was “−”. For the same sequence, the Anti-peptide antibody response ([5]; HIV-positive patient four) was “+”, the Anti-peptide antibody response ([5]; HIV-positive patient fourteen) was “−” and the Anti-peptide antibody response ([5]; HIV-positive patient nine) was “−”. The Anti-peptide antibody response ([5]; HIV-positive patient one) was “−”, the Anti-peptide antibody response ([5]; HIV-positive patient seven) was “−” and the Anti-peptide antibody response ([5]; HIV-positive patient six) was “+”. The Anti-peptide antibody response ([5]; HIV-positive patient ten) was “−”, the Anti-peptide antibody response ([5]; HIV-positive patient thirteen) was “−” and the Anti-peptide antibody response ([5]; HIV-positive patient three) was “−”. For the same sequence, the Anti-peptide antibody response ([5]; HIV-positive patient twelve) was “−”, the Anti-peptide antibody response ([5]; HIV-positive patient two) was “+” and the Anti-peptide antibody response ([5]; Normal-1 (HIV-seronegative)) was “−”. For the same sequence, the Anti-peptide antibody response ([5]; Normal-2 (HIV-seronegative)) was “−”, the “% Specific lysis at various E:T ratios 12.5:1” value ([6]; E:T 12.5:1, PBMCs from patient restimulated 7 days in phytohemagglutinin medium, peptide-pulsed autologous B-LCL) was 1.5% and the “% Specific lysis at various E:T ratios 25:1” value ([6]; E:T 25:1, PBMCs from patient restimulated 7 days in phytohemagglutinin medium, peptide-pulsed autologous B-LCL) was 3.7%. For the same sequence, the “% Specific lysis at various E:T ratios 50:1” value ([6]; E:T 50:1, PBMCs from patient restimulated 7 days in phytohemagglutinin medium, peptide-pulsed autologous B-LCL) was 9.3%, the “% Specific lysis at various E:T ratios 100:1” value ([6]; E:T 100:1, PBMCs from patient restimulated 7 days in phytohemagglutinin medium, peptide-pulsed autologous B-LCL) was 12.2% and the “CTL activity against peptide-pulsed autologous B-LCLs” value ([6]; PBMCs from LTNP HD restimulated 7 days with PHA) was “significant CTL activity”. The “specific lysis of peptide-pulsed target cells” value ([6]; […], compared with restimulated PBMCs) was “also observed”.

In the case of SVITQACSKVSFE [Peptide 113], the “T-cell proliferative response to immunizing peptide and HIV Env protein gp160” value [1] is listed as “induced a T-cell response against both the immunizing peptide and the HIV Env protein; also recorded: induced proliferative responses to both the immunizing peptide”, the “antibodies recognizing recombinant gp160” value [1] is listed as “did not produce antibodies that could recognize recombinant gp160” and the T-cell proliferation responses [1] is listed as “relatively good T-cell proliferation responses”. For the same sequence, the “number of HIV+ individuals with positive proliferative responses” value [2] was “five”, the T-cell proliferative response ([2]; HIV-positive patient MSf) was “− (−, Negative (SI < 2.0))” and the T-cell proliferative response ([2]; HIV-positive patient MSm) was “− (−, Negative (SI < 2.0))”. For the same sequence, the T-cell proliferative response ([2]; HIV-positive patient eight) was “− (−, Negative (SI < 2.0))”, the T-cell proliferative response ([2]; HIV-positive patient eleven) was “− (−, Negative (SI < 2.0))” and the T-cell proliferative response ([2]; HIV-positive patient fifteen) was “+ (+, Positive (Stimulation Index [SI] > 2.0))”. For the same sequence, the T-cell proliferative response ([2]; HIV-positive patient five) was “− (−, Negative (SI < 2.0))”, the T-cell proliferative response ([2]; HIV-positive patient four) was “− (−, Negative (SI < 2.0))” and the T-cell proliferative response ([2]; HIV-positive patient fourteen) was “+ (+, Positive (Stimulation Index [SI] > 2.0))”. For the same sequence, the T-cell proliferative response ([2]; HIV-positive patient nine) was “− (−, Negative (SI < 2.0))”, the T-cell proliferative response ([2]; HIV-positive patient one) was “− (−, Negative (SI < 2.0))” and the T-cell proliferative response ([2]; HIV-positive patient seven) was “+ (+, Positive (Stimulation Index [SI] > 2.0))”. The T-cell proliferative response ([2]; HIV-positive patient six) was “+ (+, Positive (Stimulation Index [SI] > 2.0))”, the T-cell proliferative response ([2]; HIV-positive patient ten) was “− (−, Negative (SI < 2.0))” and the T-cell proliferative response ([2]; HIV-positive patient thirteen) was “+ (+, Positive (Stimulation Index [SI] > 2.0))”. The T-cell proliferative response ([2]; HIV-positive patient three) was “− (−, Negative (SI < 2.0))”, the T-cell proliferative response ([2]; HIV-positive patient twelve) was “− (−, Negative (SI < 2.0))” and the T-cell proliferative response ([2]; HIV-positive patient two) was “− (−, Negative (SI < 2.0))”. The T-cell proliferative response ([2]; Normal-1 (HIV-seronegative)) was “− (−, Negative (SI < 2.0))”, the T-cell proliferative response ([2]; Normal-2 (HIV-seronegative)) was “− (−, Negative (SI < 2.0))” and the “proliferative response of PBMCs” value (PBMCs; monkey, in vivo) was “weak responses”. The Anti-peptide antibody response [3] was “−”, the T-cell proliferative response ([4]; chimpanzee 40, control normal) was “− (−, Negative (SI < 2.0))” and the T-cell proliferative response ([4]; chimpanzee 62, HIV-infected) was “+ (+, Positive (Stimulation Index [SI] > 2.0))”. For the same sequence, the T-cell proliferative response ([4]; chimpanzee 69, HIV-infected) was “+ (+, Positive (Stimulation Index [SI] > 2.0))”, the T-cell proliferative response ([4]; chimpanzee 73, control normal) was “− (−, Negative (SI < 2.0))” and the T-cell proliferative response ([4]; chimpanzee 80, HIV-infected) was “+ (+, Positive (Stimulation Index [SI] > 2.0))”. The T-cell proliferative response ([4]; chimpanzee 99, HIV-infected) was “− (−, Negative (SI < 2.0))”, the T-cell proliferative response ([4]; chimpanzee 100, HIV-infected) was “+ (+, Positive (Stimulation Index [SI] > 2.0))” and the T-cell proliferative response ([4]; chimpanzee 139, HIV-infected) was “− (−, Negative (SI < 2.0))”. The T-cell proliferative response ([4]; chimpanzee 175, HIV-infected) was “+ (+, Positive (Stimulation Index [SI] > 2.0))”, the T-cell proliferative response ([4]; chimpanzee 247, HIV-infected) was “− (−, Negative (SI < 2.0))” and the T-cell proliferative response ([4]; chimpanzee 310, HIV-infected) was “− (−, Negative (SI < 2.0))”. For the same sequence, the “number of HIV-infected chimpanzees with positive proliferative responses (SI>2.0)” value [4] was “five”, the Anti-peptide antibody response [5] was “+ and −” and the “number of HIV+ individuals with positive antibody titers (<1:1280)” value [5] was “one”. The “% Specific lysis at various E:T ratios 12.5:1” value [6] was 0%, the “% Specific lysis at various E:T ratios 25:1” value [6] was 0% and the “% Specific lysis at various E:T ratios 50:1” value [6] was 0%. The “% Specific lysis at various E:T ratios 100:1” value [6] was 0% and the “CTL activity against peptide-pulsed autologous B-LCLs” value [6] was “did not serve as a CTL epitope”.
